# Tested on: HT29 cells
# Assay: RNA-Seq analysis of HT29 cells
# Type: cell-based, human
# Details: 50 μM, 24 h
# Protocol: RNA sequencing: Total RNA was isolated from HT29 cells treated with vehicle and UroA (50 μM) (n=3) for 24 h and RNA was isolated using Trizol based lysis followed by Qiagen RNeasy kits. The isolated RNA was checked for integrity (RIN>9.5) using the Agilent Bioanalyzer 2100 system (Agilent Technologies, Santa Clara, CA) and quantified using a Qubit fluorometric assay (Thermo Fisher Scientific, Waltham, MA). Poly-A enriched […] libraries were prepared following Illumina's TruSeq Stranded mRNA LT library preparation protocol (Illumina Inc., San Diego, CA) using 1 μg of total RNA. All 15 samples were individually barcoded and quantitated with the KAPA Library Quantitation Kit for Illumina Platforms (Kapa Biosystems, Wilmington, MA) in conjunction with an Agilent Bioanalyzer DNA 1000 analysis (Agilent Technologies, Santa Clara, CA) for fragment size determination. The average fragment size was approximately 300 bp. […] of the pooled libraries with 1% PhiX spike-in was loaded on one NextSeq 500/550 75 cycle High Output Kit v2 sequencing flow cell and sequenced on the Illumina NextSeq 500 sequencer. The quality of the 1×75 bp sequences was checked using […] Quality Control Tool for High Throughput Sequence Data”). Trimming was not necessary with the median quality score above 30 (error probability=0.001 or 1 base call in 1,000 is predicted to be incorrect) across the entire length of the read and the lower quantile above a score of 20 (error probability=0.01) at the end of the read where there is an expected decrease in quality. The raw reads for each sample were directly aligned to the Homo sapiens (hg38) reference genome assembly (hg38.fa) using tophat2 (version 2.0.13) (KIM et al. (2013) “TopHat2: accurate alignment of transcriptomes in the presence of insertions, deletions and gene fusions” Genome biology, Vol. 14, Article […]), generating alignment files in bam format. Optional parameters include-no-coverage-search and -library-type fr-firststrand. […] On average, 26 million reads were aligned per sample with a mean alignment rate of 97 percent. […]
structure (smiles),measurement,value
"O=c1oc2cc(O)ccc2c2ccc(O)cc12 [UroA, 3,8-dihydroxy-6H-dibenzo[b,d]pyran-6-one]",Cyp1A1 expression (RNA-Seq),among the top 3 UroA upregulated genes
same,claudin 4 (Cldn4) expression (RNA-Seq),upregulated
same,heme oxygenase 1 (HMOX1 or HO1) expression (RNA-Seq),increased the expression

# Reference: patent US12377069B2, “Compounds, compositions, methods of using, and methods for preparing compounds” (UNIVERSITY OF LOUISVILLE RESEARCH FOUNDATION, INC., priority 2018, dated 2025)
